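Growth conditions: 96-well plates. Treatment: test compound, 48 hours, 5 concentrations. Analysis: linear interpolation between bracketing concentrations; unreached endpoints set to highest concentration. TGI is the concentration that stops growth completely.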

Holding throughout (assay): DTP human tumour cell line panel, 48 h
In test [1] the test system is NCI-H226 lung.
The subject of test [2] is T-47D breast.
The subject of test [3] is NCI-H522 lung.
Test [4] concerns RXF 393 renal.
Test [5] relates to HT29 colon.
The test system of test [6] is SN12C renal.
Test [7] concerns HOP-92 NSCLC.
For test [8], the system named is U251 CNS.
For test [9], the system named is SF-268 CNS.
The subject of test [10] is SK-MEL-28 melanoma.
Test [11] has as its system HCT-15 colon.

For `OCCN1CN(c2nc(N3CN(CCO)C3)nc(N3CN(CCO)C3)n2)C1`, the total growth inhibition concentration (TGI) in [1] came out at 51.2 µM; in [2] it was 64.7 µM; in [3], 30 µM; in [4], 44.8 µM; in test [5] it was 71.4 µM; in [6] it was 39.5 µM. Moreover, the TGI was found to be 53 µM in test [7]; 53 µM in [8]; 48.3 µM in test [9]; 37.3 µM in test [10]; 46.7 µM in test [11].
With `N#Cc1ccc(OC(=O)c2ccc(N=C(N)N)cc2)cc1`, the TGI in test [1], in test [2], in [3], in test [4], in [5] and in test [6] was greater than 100 µM each time. The TGI in [7], in test [8], in test [9], in test [10] and in test [11] was greater than 100 µM in each case.
For the compound `c1ccc2c(c1)CCN(C1=NCCO1)C2`, the TGI in test [1], in test [2], in [3], in test [4], in test [5] and in [6] was greater than 10 µM each time. Further, the TGI in test [7], in test [8], in test [9], in test [10] and in test [11] was greater than 10 µM throughout.
Take `O=C(O)CS(=O)c1ccc2c3c(cccc13)C(=O)c1ccccc1-2` (configuration not stated): the TGI in test [1], in [2], in test [3], in [4], in [5] and in [6] was greater than 100 µM in each case. Also, the TGI in [7], in [8], in test [9], in test [10] and in test [11] was greater than 100 µM in each case.
For `O=C1c2n[nH]nc2C(=O)c2n[nH]nc21`, the total growth inhibition concentration (TGI) in test [1], in test [2], in [3], in [4], in [5] and in test [6] was greater than 100 µM each time. The TGI in [7], in [8], in [9], in test [10] and in [11] was greater than 100 µM each time.
On to `CC(=O)Nc1ccc(N2C(=O)CS(=O)(=O)C2c2cccc(Oc3ccccc3)c2)cc1` (configuration not stated), for which the TGI in test [1] was found to be 35.8 µM; in [2], 58.3 µM; in test [3], 41.9 µM; in [4], 39.7 µM; in [5], 37.7 µM; in test [6] it was 29.6 µM. Moreover, the TGI in test [7] was found to be 29.5 µM; in test [8], 32.6 µM; in [9], 41.7 µM; in test [10], 48.3 µM; in [11], 39.5 µM.
Regarding `CCSCC(=O)N1CCc2c([nH]c3ccccc23)C1=O`, the concentration for total growth inhibition (TGI) in test [1], in test [2], in test [3], in test [4], in test [5] and in test [6] was greater than 100 µM each time. For the same compound, the TGI in test [7] was 92.8 µM; in test [8], greater than 100 µM; in test [9], greater than 100 µM; in test [10], greater than 100 µM; in test [11] it was greater than 100 µM.
`CCOP(=O)(CC1CC(O)(CNc2cc(Cl)nc(N)n2)C1)OCC` (configuration not stated): the TGI in test [1], in test [2], in test [3], in test [4], in test [5] and in test [6] was greater than 100 µM throughout. Besides, the TGI in test [7], in [8], in test [9], in test [10] and in [11] was greater than 100 µM throughout.
On to `NC(CCl)=NC1CN2CCC1CC2` (configuration not stated), for which the concentration for total growth inhibition (TGI) is greater than 100 µM in test [1]; greater than 100 µM in test [2]; 58 µM in test [3]; greater than 100 µM in test [4]; greater than 100 µM in test [5]; greater than 100 µM in test [6]. The concentration for total growth inhibition (TGI) in test [7], in test [8], in test [9], in test [10] and in test [11] was greater than 100 µM throughout.
For `N#Cc1nc(C(F)(F)F)oc1N`, the TGI in [1], in [2], in test [3], in test [4], in test [5] and in test [6] was greater than 100 µM each time. The TGI in [7], in test [8], in [9], in test [10] and in test [11] was greater than 100 µM in each case.
For `CN1[C@@H]2CCCC[C@H]2N(C)P1(=O)C(O)/C=C/c1ccccc1` (some centres not stated), the TGI in test [1], in [2], in [3], in test [4], in [5] and in [6] was greater than 100 µM throughout. Also, the concentration for total growth inhibition (TGI) in test [7], in test [8], in test [9], in [10] and in [11] was greater than 100 µM each time.
Consider `N#CN=C1c2ccccc2C(=NC#N)c2cc(CO)ccc21`, for which the TGI in [1] was greater than 100 µM; in test [2], 89.2 µM; in test [3], greater than 100 µM; in [4], 81.5 µM; in test [5], greater than 100 µM; in test [6], greater than 100 µM. Also, the concentration for total growth inhibition (TGI) is 77 µM in test [7]; greater than 100 µM in [8]; greater than 100 µM in test [9]; greater than 100 µM in test [10]; greater than 100 µM in test [11].

(Values after PubChem BioAssay (NCI).)
